Experimental data from patent US9783527B2, “Indazole ureas and method of use” (AbbVie Inc., priority 2014, dated 2017).

Key:
human Nav1.8 = human Nav1.8 (Homo sapiens (Human), UniProt Q9Y5Y9); test: FRET-based membrane potential assay, recombinant human sodium channel Nav1.8; assay type: cell-based; details: HEK293 cells stably expressing recombinant human Nav1.8; depolarization with veratridine (EC80) + scorpion venom
Description: FRET-Based Membrane Potential Assays.
Recombinant, Human Sodium Channel, Nav1.8.
Two days prior to the experiment, frozen HEK293 cells stably expressing recombinant human Nav1.8 (Essen, Ann Arbor, Mich.) were quickly thawed and plated at 22,500 cells/well in growth medium [MEM (Invitrogen #11095) with 10% FBS (Invitrogen #10082), 1 mM sodium pyruvate (Invitrogen, #C11360), 10 units/mL penicillin/10 U/mL streptomycin/29.2 μg/mL glutamine ((PSG 1%, Invitrogen #10378), 400 μg/mL zeocin (Invitrogen #R250) in black-walled, clear-bottom 384-well poly-D-lysine-coated assay plates (Greiner Bio-One, Frickenhausen, Germany) and incubated in a humidified 5% CO2 incubator at 37° C. On the day of the assay, medium was removed by aspiration, and cells were washed with assay buffer [HBSS (Invitrogen, Carlsbad, Calif.) containing 20 mM HEPES (Invitrogen, Carlsbad, Calif.)]. After washing, 30 μL assay buffer containing the fluorescent voltage-sensor probe CC2-DMPE (Invitrogen, Carlsbad, Calif.) at 20 μM and 0.01% pluronic F-127 (Invitrogen, Carlsbad, Calif.) was added to the cells. Cells were incubated for 40 minutes at room temperature in the dark. Following the incubation, the cells were washed and 30 μL assay buffer containing 2.5 μM DiSBAC2(3) substrate (Invitrogen, Carlsbad, Calif.) and 0.5 mM VABSC-1 (Invitrogen, Carlsbad, Calif.) was added to the cells. The cells were incubated for 60 minutes at room temperature in the dark. Fluorescence readings were made using a FLIPR®^TETRA (Molecular Devices, Sunnyvale Calif.) equipped with voltage-sensor probe optics. The depolarizing agent, veratridine (Sigma-Aldrich, St. Louis, Mo.), was made up at 3× concentrations in assay buffer containing 1 mg/mL scorpion venom (SVqq, from Leiurus quinquestriatus; Sigma-Aldrich, St. Louis, Mo.). The assay agonist/opener concentration was determined each day using a 6-point veratridine concentration curve in duplicate, tested with three concentrations of tetracaine (0.1, 0.06, 0.01 μM all in 0.03% dimethyl sulfoxide) and 0.03% dimethyl sulfoxide control in assay buffer. […] Test compounds in the daughter plate were diluted to (˜3×) solutions in assay buffer immediately before assaying. Using the FLIPR®^TETRA, 20 μL of the (3×) compound solutions were first added to the cells, then 20 μL of depolarizing solution (3×EC80 veratridine+SVqq) were added 3 minutes later to activate the channel. Changes in fluorescence were measured at wavelengths of 440-480 nm and 565-625 nm over the course of the experimental run. Membrane depolarization was expressed as a ratio of the maximum F440-480 nm/F565-625 nm reading above average baseline F440-480 nm/F565-625 nm reading. IC50 values were calculated from curve fits of the ratio data using a four-parameter logistic Hill equation (Accelrys Assay Explorer 3.3 Client, Accelrys, San Diego, Calif.) with percent inhibition plotted against compound concentration.

human Nav1.7 = human Nav1.7 (Homo sapiens (Human), UniProt Q15858); test: FRET-based membrane potential assay, recombinant human sodium channel Nav1.7; assay type: cell-based; details: HEK293 cells stably expressing recombinant human Nav1.7; depolarization with veratridine (EC80) + scorpion venom
Method in brief: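 IC50 derived by four-parameter Hill fit of percent inhibition of depolarization, measured as peak F440-480/F565-625 ratio over baseline. Stable human Nav1.7 HEK293 cells, dye-loaded with CC2-DMPE and DiSBAC2(3)/VABSC-1 at room temperature, received compound 3 min ahead of veratridine (EC80) plus scorpion venom.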

Chain of human Nav1.7 (Q15858 whole entry): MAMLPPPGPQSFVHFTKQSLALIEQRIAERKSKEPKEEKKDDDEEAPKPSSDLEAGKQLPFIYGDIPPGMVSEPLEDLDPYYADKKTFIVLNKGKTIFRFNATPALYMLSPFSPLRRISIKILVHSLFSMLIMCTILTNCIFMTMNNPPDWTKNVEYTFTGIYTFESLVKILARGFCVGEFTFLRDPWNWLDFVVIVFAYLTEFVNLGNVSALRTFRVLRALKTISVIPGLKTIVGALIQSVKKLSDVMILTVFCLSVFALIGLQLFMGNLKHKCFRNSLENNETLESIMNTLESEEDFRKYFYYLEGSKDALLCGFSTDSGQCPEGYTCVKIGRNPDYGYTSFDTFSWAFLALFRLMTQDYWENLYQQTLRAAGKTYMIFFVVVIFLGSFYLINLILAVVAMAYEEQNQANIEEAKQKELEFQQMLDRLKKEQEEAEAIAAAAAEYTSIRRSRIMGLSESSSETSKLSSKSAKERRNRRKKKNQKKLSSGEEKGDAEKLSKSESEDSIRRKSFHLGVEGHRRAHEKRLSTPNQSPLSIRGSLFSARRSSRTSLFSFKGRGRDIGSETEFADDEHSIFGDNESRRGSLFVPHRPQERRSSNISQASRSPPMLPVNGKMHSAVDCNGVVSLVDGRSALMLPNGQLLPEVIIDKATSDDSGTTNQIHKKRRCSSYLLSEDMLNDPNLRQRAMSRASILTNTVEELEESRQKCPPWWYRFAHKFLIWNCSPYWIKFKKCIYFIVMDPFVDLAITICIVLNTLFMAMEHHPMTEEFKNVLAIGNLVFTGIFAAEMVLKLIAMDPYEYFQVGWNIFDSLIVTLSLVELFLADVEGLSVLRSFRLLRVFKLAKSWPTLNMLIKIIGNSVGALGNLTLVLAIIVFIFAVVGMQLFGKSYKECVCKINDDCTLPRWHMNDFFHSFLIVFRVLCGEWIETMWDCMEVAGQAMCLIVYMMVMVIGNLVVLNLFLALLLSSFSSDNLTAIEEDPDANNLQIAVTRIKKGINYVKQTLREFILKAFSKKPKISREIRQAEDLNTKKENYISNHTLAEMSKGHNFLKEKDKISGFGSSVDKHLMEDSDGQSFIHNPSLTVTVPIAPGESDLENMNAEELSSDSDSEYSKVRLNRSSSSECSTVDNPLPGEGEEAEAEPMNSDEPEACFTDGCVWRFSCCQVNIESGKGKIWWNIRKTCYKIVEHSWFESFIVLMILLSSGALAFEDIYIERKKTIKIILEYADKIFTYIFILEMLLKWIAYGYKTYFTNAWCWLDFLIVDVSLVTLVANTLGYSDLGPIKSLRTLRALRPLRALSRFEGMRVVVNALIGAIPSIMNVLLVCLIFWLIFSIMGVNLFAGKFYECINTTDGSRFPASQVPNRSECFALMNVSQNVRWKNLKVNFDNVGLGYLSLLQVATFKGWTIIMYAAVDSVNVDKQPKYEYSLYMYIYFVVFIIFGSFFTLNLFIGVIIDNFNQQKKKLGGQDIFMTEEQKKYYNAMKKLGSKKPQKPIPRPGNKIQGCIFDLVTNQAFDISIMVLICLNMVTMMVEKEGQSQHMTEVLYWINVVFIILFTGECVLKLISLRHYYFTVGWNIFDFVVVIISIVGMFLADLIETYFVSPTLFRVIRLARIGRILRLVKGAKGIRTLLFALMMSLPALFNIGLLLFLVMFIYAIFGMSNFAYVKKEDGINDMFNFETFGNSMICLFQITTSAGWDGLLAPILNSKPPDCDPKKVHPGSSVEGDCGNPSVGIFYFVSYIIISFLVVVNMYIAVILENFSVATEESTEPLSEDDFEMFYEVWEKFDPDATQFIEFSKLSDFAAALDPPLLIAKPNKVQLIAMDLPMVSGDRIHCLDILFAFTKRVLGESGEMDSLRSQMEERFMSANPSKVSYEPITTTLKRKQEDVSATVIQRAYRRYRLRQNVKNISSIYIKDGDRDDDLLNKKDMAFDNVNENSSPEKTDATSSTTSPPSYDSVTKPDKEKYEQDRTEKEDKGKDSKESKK
Chain of human Nav1.8 (Q9Y5Y9 whole entry): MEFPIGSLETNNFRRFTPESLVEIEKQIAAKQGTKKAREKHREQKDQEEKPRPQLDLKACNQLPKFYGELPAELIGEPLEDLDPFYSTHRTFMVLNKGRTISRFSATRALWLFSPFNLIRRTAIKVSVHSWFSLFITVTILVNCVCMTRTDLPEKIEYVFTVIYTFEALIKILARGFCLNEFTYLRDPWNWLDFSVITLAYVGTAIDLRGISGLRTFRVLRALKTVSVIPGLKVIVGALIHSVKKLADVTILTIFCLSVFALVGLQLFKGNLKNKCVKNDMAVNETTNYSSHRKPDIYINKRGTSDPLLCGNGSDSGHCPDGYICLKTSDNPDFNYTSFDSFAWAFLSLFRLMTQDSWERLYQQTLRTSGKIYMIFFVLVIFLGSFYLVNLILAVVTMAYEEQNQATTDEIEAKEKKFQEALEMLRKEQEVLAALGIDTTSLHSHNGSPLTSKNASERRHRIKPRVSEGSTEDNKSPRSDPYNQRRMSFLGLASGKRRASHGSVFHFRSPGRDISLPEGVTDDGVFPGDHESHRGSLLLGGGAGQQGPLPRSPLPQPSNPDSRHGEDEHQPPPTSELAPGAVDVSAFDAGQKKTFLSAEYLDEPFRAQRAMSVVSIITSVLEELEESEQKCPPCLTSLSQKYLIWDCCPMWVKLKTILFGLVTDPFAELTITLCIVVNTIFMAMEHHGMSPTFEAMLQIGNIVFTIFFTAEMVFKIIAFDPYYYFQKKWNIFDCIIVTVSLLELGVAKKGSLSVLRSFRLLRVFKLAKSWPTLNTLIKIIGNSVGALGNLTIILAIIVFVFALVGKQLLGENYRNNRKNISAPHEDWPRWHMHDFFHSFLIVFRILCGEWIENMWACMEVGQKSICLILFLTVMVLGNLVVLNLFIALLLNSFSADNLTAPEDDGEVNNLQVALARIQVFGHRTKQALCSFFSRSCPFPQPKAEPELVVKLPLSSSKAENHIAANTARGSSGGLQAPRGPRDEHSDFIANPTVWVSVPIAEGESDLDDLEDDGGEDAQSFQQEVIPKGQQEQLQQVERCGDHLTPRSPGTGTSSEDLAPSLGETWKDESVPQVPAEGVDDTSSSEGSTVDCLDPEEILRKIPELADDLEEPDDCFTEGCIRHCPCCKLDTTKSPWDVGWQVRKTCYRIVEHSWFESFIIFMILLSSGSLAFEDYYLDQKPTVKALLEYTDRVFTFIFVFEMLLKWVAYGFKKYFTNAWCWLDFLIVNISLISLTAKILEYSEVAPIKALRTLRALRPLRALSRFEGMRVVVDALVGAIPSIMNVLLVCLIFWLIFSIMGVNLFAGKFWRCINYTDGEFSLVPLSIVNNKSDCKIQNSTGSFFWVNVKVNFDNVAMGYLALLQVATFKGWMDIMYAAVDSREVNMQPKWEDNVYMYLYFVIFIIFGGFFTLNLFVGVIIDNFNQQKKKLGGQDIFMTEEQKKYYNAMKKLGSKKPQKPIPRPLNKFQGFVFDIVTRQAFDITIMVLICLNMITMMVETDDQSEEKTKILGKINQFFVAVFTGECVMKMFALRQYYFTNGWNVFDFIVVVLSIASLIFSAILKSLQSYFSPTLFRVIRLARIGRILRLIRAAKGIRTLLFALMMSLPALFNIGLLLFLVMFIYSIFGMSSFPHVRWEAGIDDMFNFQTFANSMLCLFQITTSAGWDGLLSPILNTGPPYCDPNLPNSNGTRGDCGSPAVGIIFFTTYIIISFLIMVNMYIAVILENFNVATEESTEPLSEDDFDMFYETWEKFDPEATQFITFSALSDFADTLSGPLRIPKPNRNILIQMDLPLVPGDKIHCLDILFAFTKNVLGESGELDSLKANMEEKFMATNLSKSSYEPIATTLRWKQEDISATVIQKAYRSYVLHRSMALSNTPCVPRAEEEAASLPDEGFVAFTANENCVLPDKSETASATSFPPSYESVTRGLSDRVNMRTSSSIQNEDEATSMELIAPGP

Row | Compound | IC50 (human Nav1.8) | IC50 (human Nav1.7)
1 | O=C(CN1CCN(c2cccc3c2cnn3-c2ccccc2F)C1=O)NC1CCCCC1 [Example 324, N-cyclohexyl-2-{3-[1-(2-fluorophenyl)-1H-indazol-4-yl]-2-oxoimidazolidin-1-yl}acetamide] | 526 nM | 1410 nM
2 | NC(=O)[C@@H](Cc1ccccc1)NC(=O)CN1CCN(c2cccc3c2cnn3-c2ccccc2F)C1=O [Example 345, Nα-({3-[1-(2-fluorophenyl)-1H-indazol-4-yl]-2-oxoimidazolidin-1-yl}acetyl)-D-phenylalaninamide] | 1780 nM | 6060 nM
3 | CCCS(=O)(=O)N1CC(N2CCN(c3cccc4c3cnn4-c3ccccc3F)C2=O)C1 [Example 274, 1-[1-(2-fluorophenyl)-1H-indazol-4-yl]-3-[1-(propylsulfonyl)azetidin-3-yl]imidazolidin-2-one] | 1400 nM | 2740 nM
4 | O=C(CCN1CCN(c2cccc3c2cnn3-c2ccccc2F)C1=O)N1CCC[C@@H](F)C1 [Example 317, 1-[1-(2-fluorophenyl)-1H-indazol-4-yl]-3-{3-[(3R)-3-fluoropiperidin-1-yl]-3-oxopropyl}imidazolidin-2-one] | 1280 nM | 2440 nM
5 | CC(C)O[C@H]1CCCC[C@@H]1N1CCN(c2cccc3c2cnn3-c2ccccc2F)C1=O [Example 331, 1-[1-(2-fluorophenyl)-1H-indazol-4-yl]-3-[(1S,2S)-2-isopropoxycyclohexyl]imidazolidin-2-one] | 3650 nM | 1440 nM
6 | O=C(CN1CCN(c2cccc3c2cnn3-c2ccccc2F)C1=O)N1CC(F)(F)C(F)(F)C1 [Example 312, 1-[1-(2-fluorophenyl)-1H-indazol-4-yl]-3-[2-oxo-2-(3,3,4,4-tetrafluoropyrrolidin-1-yl)ethyl]imidazolidin-2-one] | 1680 nM | 1710 nM
7 | O=C(CN1CCN(c2cccc3c2cnn3-c2ccccc2F)C1=O)NC1CC(O)C1 (centres unmarked) [Example 350, 2-{3-[1-(2-fluorophenyl)-1H-indazol-4-yl]-2-oxoimidazolidin-1-yl}-N-(3-hydroxycyclobutyl)acetamide] | 12300 nM | 9220 nM
8 | O=C(CN1CCN(c2cccc3c2cnn3-c2ccccc2F)C1=O)N[C@@H]1CCC[C@H]1OCc1ccccc1 [Example 335, N-[(1R,2R)-2-(benzyloxy)cyclopentyl]-2-{3-[1-(2-fluorophenyl)-1H-indazol-4-yl]-2-oxoimidazolidin-1-yl}acetamide] | 501 nM | 1110 nM
9 | O=C(CCN1CCN(c2cccc3c2cnn3-c2ccccc2F)C1=O)N1CC[C@H](F)C1 [Example 292, 1-[1-(2-fluorophenyl)-1H-indazol-4-yl]-3-{3-[(3S)-3-fluoropyrrolidin-1-yl]-3-oxopropyl}imidazolidin-2-one] | 4440 nM | 2960 nM
10 | O=C1N(c2cccc3c2cnn3-c2ccccc2F)CCN1C1CN(S(=O)(=O)CC2CC2(Cl)Cl)C1 (centres unmarked) [Example 282, 1-(1-{[(2,2-dichlorocyclopropyl)methyl]sulfonyl}azetidin-3-yl)-3-[1-(2-fluorophenyl)-1H-indazol-4-yl]imidazolidin-2-one] | 1410 nM | 2490 nM
11 | CC(=O)C1CN(C(=O)CN2CCN(c3cccc4c3cnn4-c3ccccc3F)C2=O)C1 [Example 325, 1-[2-(3-acetylazetidin-1-yl)-2-oxoethyl]-3-[1-(2-fluorophenyl)-1H-indazol-4-yl]imidazolidin-2-one] | 3860 nM | 3120 nM
12 | COC1CN(C(=O)CN2CCN(c3cccc4c3cnn4-c3ccccc3F)C2=O)C1 [Example 319, 1-[1-(2-fluorophenyl)-1H-indazol-4-yl]-3-[2-(3-methoxyazetidin-1-yl)-2-oxoethyl]imidazolidin-2-one] | 3020 nM | 3140 nM
13 | O=C(CN1CCN(c2cccc3c2cnn3-c2ccccc2F)C1=O)N[C@H]1CCOC1 [Example 87, 2-{3-[1-(2-fluorophenyl)-1H-indazol-4-yl]-2-oxoimidazolidin-1-yl}-N-[(3S)-tetrahydrofuran-3-yl]acetamide] | 5560 nM | 2460 nM
14 | O=C1C[C@H]2CC[C@@H](C1)N2C(=O)CN1CCN(c2cccc3c2cnn3-c2ccccc2F)C1=O [Example 311, (1R,5S)-8-({3-[1-(2-fluorophenyl)-1H-indazol-4-yl]-2-oxoimidazolidin-1-yl}acetyl)-8-azabicyclo[3.2.1]octan-3-one] | 4350 nM | 5850 nM
15 | CC(C)COC(=O)N1CCN(c2cccc3c2cnn3-c2ccccc2F)C1=O [Example 5, isobutyl 3-[1-(2-fluorophenyl)-1H-indazol-4-yl]-2-oxoimidazolidine-1-carboxylate] | 57.2 nM | 166 nM
16 | O=C(CN1CCN(c2cccc3c2cnn3-c2ccccc2F)C1=O)N1CCC(F)(F)CC1 [Example 297, 1-[2-(4,4-difluoropiperidin-1-yl)-2-oxoethyl]-3-[1-(2-fluorophenyl)-1H-indazol-4-yl]imidazolidin-2-one] | 881 nM | 3020 nM
17 | CON=C1CC(NC(=O)CN2CCN(c3cccc4c3cnn4-c3ccccc3F)C2=O)C1 (centres unmarked) [Example 355, 2-{3-[1-(2-fluorophenyl)-1H-indazol-4-yl]-2-oxoimidazolidin-1-yl}-N-[3-(methoxyimino)cyclobutyl]acetamide] | 4050 nM | 9230 nM
18 | O=C(CN1CCN(c2cccc3c2cnn3-c2ccccc2F)C1=O)N1CC[C@H](C(F)(F)F)C1 [Example 308, 1-[1-(2-fluorophenyl)-1H-indazol-4-yl]-3-{2-oxo-2-[(3S)-3-(trifluoromethyl)pyrrolidin-1-yl]ethyl}imidazolidin-2-one] | 345 nM | 1020 nM
19 | O=C(CN1CCN(c2cccc3c2cnn3-c2ccccc2F)C1=O)N1CCC(F)CC1 [Example 69, 1-[1-(2-fluorophenyl)-1H-indazol-4-yl]-3-[2-(4-fluoropiperidin-1-yl)-2-oxoethyl]imidazolidin-2-one] | 4800 nM | 2950 nM
20 | O=C1CCCN(C(=O)CN2CCN(c3cccc4c3cnn4-c3ccccc3F)C2=O)CC1 [Example 313, 1-({3-[1-(2-fluorophenyl)-1H-indazol-4-yl]-2-oxoimidazolidin-1-yl}acetyl)azepan-4-one] | 3250 nM | 2720 nM
21 | O=C1CCN(C(=O)CN2CCN(c3cccc4c3cnn4-c3ccccc3F)C2=O)C1 [Example 302, 1-[1-(2-fluorophenyl)-1H-indazol-4-yl]-3-[2-oxo-2-(3-oxopyrrolidin-1-yl)ethyl]imidazolidin-2-one] | 7180 nM | 20000 nM
22 | CC(C)CO[C@H]1CCC[C@H]1NC(=O)CN1CCN(c2cccc3c2cnn3-c2ccccc2F)C1=O [Example 337, 2-{3-[1-(2-fluorophenyl)-1H-indazol-4-yl]-2-oxoimidazolidin-1-yl}-N-[(1R,2S)-2-isobutoxycyclopentyl]acetamide] | 846 nM | 2240 nM
23 | O=C(CN1CCN(c2cccc3c2cnn3-c2ccccc2F)C1=O)NC1CCCC(F)(F)C1 (centres unmarked) [Example 340, N-(3,3-difluorocyclohexyl)-2-{3-[1-(2-fluorophenyl)-1H-indazol-4-yl]-2-oxoimidazolidin-1-yl}acetamide] | 637 nM | 2640 nM
24 | O=C(CN1CCN(c2cccc3c2cnn3-c2ccccc2F)C1=O)N1CC2(COC2)C1 [Example 100, 1-[1-(2-fluorophenyl)-1H-indazol-4-yl]-3-[2-(2-oxa-6-azaspiro[3.3]hept-6-yl)-2-oxoethyl]imidazolidin-2-one] | 20000 nM | 5010 nM
25 | O=C(CN1CCN(c2cccc3c2cnn3-c2ccccc2F)C1=O)N1CC(C(F)(F)F)C1 [Example 329, 1-[1-(2-fluorophenyl)-1H-indazol-4-yl]-3-{2-oxo-2-[3-(trifluoromethyl)azetidin-1-yl]ethyl}imidazolidin-2-one] | 3130 nM | 2720 nM
